Test: Stability of the amidite intermediate on storage (UPLC/HPLC analysis)
Assay type: physicochemical
Protocol: The following conditions were used for the analysis of compound 5.
Mobile phase [A]: 60 mM ammonia-ammonium acetate-containing buffer solution (pH 8.0), Mobile phase [B]: acetonitrile
Gradient: 15% solvent [B] was kept for 0.5 minutes, then linear gradient from 15% to 50% solvent [B] was performed in 2.5 minutes, linear gradient from 50% to 65% solvent [B] was performed in 9 minutes, linear gradient from 65% to 95% solvent [B] was performed in 3 minutes, and 95% solvent [B] was kept for 1 minute.
Column: ACQUITY UPLC (registered trademark) BEH Phenyl (1.7 μm, i.d. 2.1×100 mm) (Waters)
UV Detection wavelength: 295 nm
The following conditions were used for the analysis of comparative compound.
Mobile phase [A]: 10 mM ammonium formate-containing aqueous solution, Mobile phase [B]: methanol
Gradient: 97% solvent [B] was kept for 20 minutes.
Column: Triart (registered trademark) C8 (3 μm, i.d. 4.6×100 mm) (YMC)
Detector: Corona CAD, Corona CAD detection conditions: 60 Hz, BCD polarity+, pressure 35±1 psi, total flow rate 1.53 mL/min

| SMILES | Stability (analysis value) (−20° C., after 7 months) [%] | Stability (analysis value) (−20° C., after 71 days) [%] | Stability (analysis value) (−20° C., initial) [%] | Decomposition on storage (−20° C., over time) | Decomposition on storage (40° C. for 50 days) | Stability (analysis value) (40° C., after 7 days) [%] | Stability (analysis value) (40° C., after 50 days) [%] | Stability (analysis value) (40° C., initial) [%] |
| --- | --- | --- | --- | --- | --- | --- | --- | --- |
| CCCCCCCCCCCCCCCCCCCC(=O)NCC(CNC(=O)CCCCCCCCCCCCCCCCCCC)OP(OCCC#N)N(C(C)C)C(C)C (centres unmarked) [Comparative compound] | 33.8 | 42.0 | 54.3 | unstable | – | – | – | – |
| CC(C)N(C(C)C)P(OCCC#N)OC(CN1C(=O)c2ccccc2C1=O)CN1C(=O)c2ccccc2C1=O (centres unmarked) [Compound 5] | – | – | – | – | No decomposition | 99.6 | 99.7 | 99.6 |
